Series [1] is described as follows: Water miscibility of silyl-protected ionic liquid. The series is classed as physicochemical. The method, then: Dry 3-HOPMIm PF6(2.86 g, 10 mmol) was placed in a round-bottomed flask and dissolved in 50 ml dry THF. Dry trimethylsilyl (TMS) chloride (1.05 g) was added in dry THF solution, dropwise over a period of 30 minutes, with external cooling and stirring, under an atmosphere of dry argon. Stirring was continued for 12 hours.
At the completion of the reaction (TLC), the solvent was removed in vacuo to yield the silyl-protected ionic liquid (3.52 g, 98%), 3-TMSOPMIm PF6.

The target of series [2] is T1, morphine dehydrogenase (MDH) (Pseudomonas putida, UniProt Q02198).
T1 sequence (Q02198 1-296): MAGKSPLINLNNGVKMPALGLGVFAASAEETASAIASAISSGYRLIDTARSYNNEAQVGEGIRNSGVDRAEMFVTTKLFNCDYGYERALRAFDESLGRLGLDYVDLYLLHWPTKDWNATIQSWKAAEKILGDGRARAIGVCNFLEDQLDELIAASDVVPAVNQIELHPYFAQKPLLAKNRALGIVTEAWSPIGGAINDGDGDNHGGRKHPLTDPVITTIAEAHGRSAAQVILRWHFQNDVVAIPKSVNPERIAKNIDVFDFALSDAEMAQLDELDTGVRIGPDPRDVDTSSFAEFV
The conditions noted are these: ionic liquid as medium, cited from earlier work; for Net % codeinone: <100 ppm water, glucose dehydrogenase recycling NADP+.

Series [3] can be described thus: Refractive index of ionic liquid (Mettler Toledo Refracto 30PX, sodium D-line 589.3 nm). To be noted: sodium D-line at 589.3 nm. The series is classed as physicochemical. Here is the method: (§1) Refractive index was measured using a Mettler Toledo Refracto™ 30PX, using a single wavelength light source (the sodium D-line at 589.3 nm). Viscosity was measured using an AND Vibro™ SV10 instrument, which measures viscosity by controlling the amplitude of vibrations of sensor plates submerged in a liquid, detecting changes in the electric current needed to drive the plates.

Series [4] is described as follows: Viscosity of ionic liquid (AND Vibro SV10). The series is classed as physicochemical. To be noted: at 25° C. Here is the method:
as §1

Series [5] can be described thus: Solubility of penicillin G (sodium salt) in ionic liquid solvents. In kind it is physicochemical.

Each structure is given as a SMILES string. Read-outs that look alike come from different tables or passages of the source.

These results are taken from US20080191170A1, “Use of Ionic Liquids” (CAMBRIDGE UNIVERSITY TECHNICAL SERVICES LIMITED, priority 2004, published 2008).

As to `Cn1cc[n+](CCCO[Si](C)(C)C)c1.F[P-](F)(F)(F)(F)F` [3-TMSOPMIm PF6], the miscibility with water entry in series [1] was “effectively immiscible with water”.
On to `CCCCn1cc[n+](C)c1.F[P-](F)(F)(F)(F)F` [BMIm PF6], for which the Net % codeinone in series [2] (1 hour) is reported as 0%; in series [2] (4 hours), 0%; in series [2] (24 hours), 2%. In series [2], the “MDH activity in the ionic liquid (in words)” value (from here on “MDH activity”) was “extremely low”.
Turning to `CCCCn1cc[n+](C)c1.O=C([O-])CO` [BMIm glycolate], the Net % codeinone in series [2] (1 hour) is recorded as 0%; in series [2] (4 hours) it was 5%; in series [2] (24 hours) it was 12%. In series [2], the “MDH activity” value is recorded as “greatly improved”.
As to `C[n+]1ccn(CCCO)c1.[Cl-]` [HOPMIm Cl, hydroxypropyl methyl imidazolium chloride], the figures for the Net % codeinone in series [2] (1 hour), in series [2] (4 hours) and in series [2] (24 hours) were 0%, 0% and “Small”, respectively. Moreover, the “MDH activity” value in series [2] is reported as “very little activity”.
For `C[n+]1ccn(CCCO)c1.F[P-](F)(F)(F)(F)F` [HOPMIm PF6], the Net % codeinone was 2% in series [2] (1 hour), 9% in series [2] (4 hours) and 20% in series [2] (24 hours). The “MDH activity” value in series [2] is on record as “high level”.
On to `C[n+]1ccn(CCCO)c1.O=C([O-])CO` [HOPMIm glycolate], for which the Net % codeinone result was “small” in series [2] (1 hour), 5% in series [2] (4 hours) and 16% in series [2] (24 hours). The “MDH activity” value in series [2] was “moderate level of activity”.
`CC(=O)O.CCCCN(CCO)CCO` [Pure n-butyl diethanolammonium acetate, n-butyl diethanolammonium acetate] returned a Refractive index in series [3] of 1.464. Further, the Viscosity in series [4] is given as ~285 mPa · s.
For the molecule `CCCCN(CCO)CCO.O=C(O)C(F)(F)F` [n-butyl diethanolammonium trifluoroacetate], in series [3], the Refractive index was determined as 1.434. Besides, the Viscosity in series [4] came to 440 mPa · s.
For orientation: solubility means how much of the substance goes into solution per volume. For `CC1(C)S[C@@H]2[C@H](NC(=O)Cc3ccccc3)C(=O)N2[C@H]1C(=O)[O-].[Na+]` [penicillin G (sodium salt)], the solubility in series [5] (in dimethyl ethanolammonium crotonate/ethanol (25/75 v/v)) is ~50 mg/mL; in series [5] (in dimethyl ethanolammonium trifluoroacetate/ethanol (25/75 v/v)), 76 mg/mL; in series [5] (in pure dimethyl ethanolammonium crotonate), ~20 mg/mL; in series [5] (in pure dimethyl ethanolammonium trifluoroacetate) it was > 275 mg/mL.
